{"source": "paper PMC5218480", "about": "(PLoS ONE, 2017)", "test_system": "MV-4-11 cells", "assay": "Gene expression microarray analysis (Affymetrix PrimeView) and GSEA", "type": "cell-based, human", "parameters": "RFU PODN (11730768_x_at) / Fold change /veh PODN (11730768_x_at) / RFU LINC00158 (11744669_a_at) / Fold change /veh LINC00158 (11744669_a_at) / RFU DUSP10 (11751237_a_at) / Fold change /veh DUSP10 (11751237_a_at) / RFU ID3 (11757404_x_at) / Fold change /veh ID3 (11757404_x_at) / RFU PLEKHG5 (11737974_s_at) / Fold change /veh PLEKHG5 (11737974_s_at) / RFU LRRC4B (11730491_at) / Fold change /veh LRRC4B (11730491_at) / RFU GIMAP4 (11747438_a_at) / Fold change /veh GIMAP4 (11747438_a_at) / RFU KRT8 (11758183_x_at) / Fold change /veh KRT8 (11758183_x_at) / RFU CNN1 (11734310_a_at) / Fold change /veh CNN1 (11734310_a_at) / RFU VPS37D (11726825_at) / Fold change /veh VPS37D (11726825_at) / RFU C10orf10 (11716522_x_at) / Fold change /veh C10orf10 (11716522_x_at) / RFU KIR2DL2 /// KIR2DL4 /// KIR2DL5A /// KIR2DL5B /// KIR2DS1 /// KIR2DS2 /// KIR2DS3 /// KIR2DS4 /// KIR3DL3 /// KIR3DL3 /// KIR3DS1 (11738374_at) / Fold change /veh KIR2DL2 /// KIR2DL4 /// KIR2DL5A /// KIR2DL5B /// KIR2DS1 /// KIR2DS2 /// KIR2DS3 /// KIR2DS4 /// KIR3DL3 /// KIR3DL3 /// KIR3DS1 (11738374_at) / RFU C1QL1 (11718748_at) / Fold change /veh C1QL1 (11718748_at) / RFU TMPRSS4 (11747572_a_at) / Fold change /veh TMPRSS4 (11747572_a_at) / RFU HAMP (11756126_x_at) / Fold change /veh HAMP (11756126_x_at) / RFU RNFT2 (11725882_a_at) / Fold change /veh RNFT2 (11725882_a_at) / RFU NR4A2 (11747474_a_at) / Fold change /veh NR4A2 (11747474_a_at) / RFU ABCC12 (11746883_a_at) / Fold change /veh ABCC12 (11746883_a_at) / RFU TMEM136 (11760407_x_at) / Fold change /veh TMEM136 (11760407_x_at) / RFU CLDN22 /// WWC2 (11732394_at) / Fold change /veh CLDN22 /// WWC2 (11732394_at) / RFU HLA-DPB1 (11760878_x_at) / Fold change /veh HLA-DPB1 (11760878_x_at) / RFU SPINT1 (11716480_a_at) / Fold change /veh SPINT1 (11716480_a_at) / RFU GAP43 (11754022_s_at) / Fold change /veh GAP43 (11754022_s_at) / RFU A4GNT (11735810_at) / Fold change /veh A4GNT (11735810_at) / RFU PRB3 (11715151_x_at) / Fold change /veh PRB3 (11715151_x_at) / RFU TUBB4B (11761932_at) / Fold change /veh TUBB4B (11761932_at) / RFU CAPN14 (11732068_a_at) / Fold change /veh CAPN14 (11732068_a_at) / RFU TMCC2 (11721928_a_at) / Fold change /veh TMCC2 (11721928_a_at) / RFU IRGQ (11745062_a_at) / Fold change /veh IRGQ (11745062_a_at) / RFU FAM174B (11720279_a_at) / Fold change /veh FAM174B (11720279_a_at) / RFU TMPRSS4 (11748680_a_at) / Fold change /veh TMPRSS4 (11748680_a_at) / RFU FAM212B (11763350_a_at) / Fold change /veh FAM212B (11763350_a_at) / RFU PLEKHG5 (11743358_a_at) / Fold change /veh PLEKHG5 (11743358_a_at) / RFU ZSCAN30 (11745921_a_at) / Fold change /veh ZSCAN30 (11745921_a_at) / RFU CMKLR1 (11741424_a_at) / Fold change /veh CMKLR1 (11741424_a_at) / RFU LOC101060620 /// MAPK8IP1 (11723275_at) / Fold change /veh LOC101060620 /// MAPK8IP1 (11723275_at) / RFU SPTSSB (11747773_x_at) / Fold change /veh SPTSSB (11747773_x_at) / RFU PRSS12 (11739890_at) / Fold change /veh PRSS12 (11739890_at) / RFU BIN1 (11741810_x_at) / Fold change /veh BIN1 (11741810_x_at) / RFU WNT11 (11732464_a_at) / Fold change /veh WNT11 (11732464_a_at) / RFU C10orf10 (11716521_a_at) / Fold change /veh C10orf10 (11716521_a_at) / RFU C5orf56 (11738089_at) / Fold change /veh C5orf56 (11738089_at) / RFU CYB561 (11721691_x_at) / Fold change /veh CYB561 (11721691_x_at) / RFU ANKRD19P (11752326_a_at) / Fold change /veh ANKRD19P (11752326_a_at) / RFU OR2T12 /// OR2T33 /// OR2T8 (11738714_s_at) / Fold change /veh OR2T12 /// OR2T33 /// OR2T8 (11738714_s_at) / RFU VCAN (11748164_a_at) / Fold change /veh VCAN (11748164_a_at) / RFU JSRP1 (11732532_at) / Fold change /veh JSRP1 (11732532_at) / RFU KRTAP10-11 (11738290_x_at) / Fold change /veh KRTAP10-11 (11738290_x_at) / RFU MYO3A (11730013_a_at) / Fold change /veh MYO3A (11730013_a_at) / RFU EBF3 (11725865_a_at) / Fold change /veh EBF3 (11725865_a_at) / RFU CAMK2N1 (11719241_x_at) / Fold change /veh CAMK2N1 (11719241_x_at) / RFU C5orf56 (11738088_a_at) / Fold change /veh C5orf56 (11738088_a_at) / RFU OLFML3 (11715873_a_at) / Fold change /veh OLFML3 (11715873_a_at) / RFU LOC100653217 /// NTM (11731650_a_at) / Fold change /veh LOC100653217 /// NTM (11731650_a_at) / RFU MAPK11 (11762145_a_at) / Fold change /veh MAPK11 (11762145_a_at) / RFU FIZ1 (11724087_x_at) / Fold change /veh FIZ1 (11724087_x_at) / RFU OASL (11726364_x_at) / Fold change /veh OASL (11726364_x_at) / RFU SOX15 (11748057_x_at) / Fold change /veh SOX15 (11748057_x_at) / RFU CD79A (11719716_a_at) / Fold change /veh CD79A (11719716_a_at) / RFU HIST1H1D (11736915_at) / Fold change /veh HIST1H1D (11736915_at) / RFU CASKIN2 (11723855_a_at) / Fold change /veh CASKIN2 (11723855_a_at) / RFU LOC730098 (11760151_x_at) / Fold change /veh LOC730098 (11760151_x_at) / RFU OR4N2 (11742367_at) / Fold change /veh OR4N2 (11742367_at) / RFU PRRT2 (11749266_a_at) / Fold change /veh PRRT2 (11749266_a_at) / RFU SNX32 (11753110_a_at) / Fold change /veh SNX32 (11753110_a_at) / RFU CDHR5 (11726645_a_at) / Fold change /veh CDHR5 (11726645_a_at) / RFU RCAN1 (11760418_a_at) / Fold change /veh RCAN1 (11760418_a_at) / RFU FAM167A (11723789_a_at) / Fold change /veh FAM167A (11723789_a_at) / RFU FAM26E (11764081_at) / Fold change /veh FAM26E (11764081_at) / RFU ISYNA1 (11749810_s_at) / Fold change /veh ISYNA1 (11749810_s_at) / RFU ACY1 (11761880_at) / Fold change /veh ACY1 (11761880_at) / RFU 11764098_at / Fold change /veh 11764098_at / RFU SAMD14 (11745864_x_at) / Fold change /veh SAMD14 (11745864_x_at) / RFU NPB (11741838_a_at) / Fold change /veh NPB (11741838_a_at) / RFU TMPRSS6 (11731388_a_at) / Fold change /veh TMPRSS6 (11731388_a_at) / RFU KRTAP10-2 (11738614_at) / Fold change /veh KRTAP10-2 (11738614_at) / RFU ARHGAP8 /// PRR5-ARHGAP8 (11727945_x_at) / Fold change /veh ARHGAP8 /// PRR5-ARHGAP8 (11727945_x_at) / RFU KRTAP5-7 /// NADSYN1 (11734609_at) / Fold change /veh KRTAP5-7 /// NADSYN1 (11734609_at) / RFU RASL12 (11751679_a_at) / Fold change /veh RASL12 (11751679_a_at) / RFU CDKN2B (11736163_a_at) / Fold change /veh CDKN2B (11736163_a_at) / RFU PRF1 (11729649_at) / Fold change /veh PRF1 (11729649_at) / RFU, ZNF638 /// ZNF638-IT1 / Fold change vs veh, ZNF638 /// ZNF638-IT1 / RFU, PANK3 / Fold change vs veh, PANK3 / RFU, SH3YL1 / Fold change vs veh, SH3YL1 / RFU, ZEB2 / Fold change vs veh, ZEB2 / RFU, NRIP1 / Fold change vs veh, NRIP1 / RFU, PTTG1IP / Fold change vs veh, PTTG1IP / RFU, CAPN2 / Fold change vs veh, CAPN2 / RFU, MED14 / Fold change vs veh, MED14 / RFU, SNORA58 / Fold change vs veh, SNORA58 / RFU, C1orf63 / Fold change vs veh, C1orf63 / RFU, LRRFIP1 / Fold change vs veh, LRRFIP1 / RFU, NDUFAF7 / Fold change vs veh, NDUFAF7 / RFU, SLC12A2 / Fold change vs veh, SLC12A2 / RFU, IBTK / Fold change vs veh, IBTK / RFU, ESF1 / Fold change vs veh, ESF1 / Fold change vs veh, TMEM50B / RFU, TAOK1 / Fold change vs veh, TAOK1 / RFU, ACBD3 / Fold change vs veh, ACBD3 / RFU, TMA16 / Fold change vs veh, TMA16 / RFU, RWDD3 / Fold change vs veh, RWDD3 / RFU, BCAT1 / Fold change vs veh, BCAT1 / RFU, EDEM3 / Fold change vs veh, EDEM3 / RFU, TMEM33 / Fold change vs veh, TMEM33 / RFU, WDR75 / Fold change vs veh, WDR75 / RFU, AHCTF1 / Fold change vs veh, AHCTF1 / RFU, TFRC / Fold change vs veh, TFRC / RFU, ZDHHC17 / Fold change vs veh, ZDHHC17 / RFU, NOM1 / Fold change vs veh, NOM1 / RFU, ARL8B / Fold change vs veh, ARL8B / RFU, ZBTB11 / Fold change vs veh, ZBTB11 / RFU, TAMM41 / Fold change vs veh, TAMM41 / RFU, KIAA1704 /// LOC100996395 / Fold change vs veh, KIAA1704 /// LOC100996395 / RFU, ING1 / Fold change vs veh, ING1 / RFU, TRMT61B / Fold change vs veh, TRMT61B / RFU, FUBP3 / Fold change vs veh, FUBP3 / RFU, TP53 / Fold change vs veh, TP53 / RFU, TNKS2 / Fold change vs veh, TNKS2 / RFU, ZFP14 / Fold change vs veh, ZFP14 / RFU, ACTR2 / Fold change vs veh, ACTR2 / RFU, PPP3R1 / Fold change vs veh, PPP3R1 / RFU, PIK3R1 / Fold change vs veh, PIK3R1 / RFU, HNRNPA1 / Fold change vs veh, HNRNPA1 / RFU, RNF170 / Fold change vs veh, RNF170 / RFU, ZNF28 / Fold change vs veh, ZNF28 / RFU, RNGTT / Fold change vs veh, RNGTT / RFU, OGT / Fold change vs veh, OGT / RFU, BRD1 / Fold change vs veh, BRD1 / RFU, MARS / Fold change vs veh, MARS / RFU, ZNF655 / Fold change vs veh, ZNF655 / RFU, FAHD1 / Fold change vs veh, FAHD1 / RFU, BDP1 / Fold change vs veh, BDP1 / RFU, LRRCC1 / Fold change vs veh, LRRCC1 / RFU, ARID1A / Fold change vs veh, ARID1A / RFU, ZNF146 / Fold change vs veh, ZNF146 / RFU, ZNF330 / Fold change vs veh, ZNF330 / RFU, GPN3 / Fold change vs veh, GPN3 / RFU, C9orf123 / Fold change vs veh, C9orf123 / RFU, N4BP2L2 / Fold change vs veh, N4BP2L2 / RFU, ARFIP1 / Fold change vs veh, ARFIP1 / RFU, FAM179B / Fold change vs veh, FAM179B / RFU, BCL10 / Fold change vs veh, BCL10 / RFU, UHRF1BP1L / Fold change vs veh, UHRF1BP1L / RFU, BET1 / Fold change vs veh, BET1 / RFU, CNOT2 / Fold change vs veh, CNOT2 / RFU, ZNF268 / Fold change vs veh, ZNF268 / Fold change vs veh, ZNF507 / RFU, DGCR2 / Fold change vs veh, DGCR2 / RFU, WDSUB1 / Fold change vs veh, WDSUB1 / Fold change vs veh, HSP90B1 /// MIR3652 / RFU, ADSS / Fold change vs veh, ADSS / RFU, GK / Fold change vs veh, GK / RFU, ZNF148 / Fold change vs veh, ZNF148 / RFU, TAF9 / Fold change vs veh, TAF9 / RFU, SLC1A5 / Fold change vs veh, SLC1A5 / RFU, SLMO2 / Fold change vs veh, SLMO2 / RFU, ABCC4 / Fold change vs veh, ABCC4 / RFU, LOC101060439 /// RAP1B / Fold change vs veh, LOC101060439 /// RAP1B / RFU, RFX7 / Fold change vs veh, RFX7 / RFU, GTPBP10 / Fold change vs veh, GTPBP10 / RFU, CNEP1R1 / Fold change vs veh, CNEP1R1 / RFU, BIVM-ERCC5 /// ERCC5 / Fold change vs veh, BIVM-ERCC5 /// ERCC5 / RFU, ILF3 / Fold change vs veh, ILF3 / RFU 11762660_at / Fold change /veh 11762660_at / RFU VCAN (11757783_s_at) / Fold change /veh VCAN (11757783_s_at) / RFU DDX43 (11728927_at) / Fold change /veh DDX43 (11728927_at) / RFU KRT8 (11758188_x_at) / Fold change /veh KRT8 (11758188_x_at) / RFU NKD1 (11759106_at) / Fold change /veh NKD1 (11759106_at) / RFU SRD5A1 (11742802_a_at) / Fold change /veh SRD5A1 (11742802_a_at) / RFU TPSAB1 /// TPSB2 (11721975_s_at) / Fold change /veh TPSAB1 /// TPSB2 (11721975_s_at) / RFU GSTM3 (11746129_a_at) / Fold change /veh GSTM3 (11746129_a_at) / RFU IL23R (11737362_x_at) / Fold change /veh IL23R (11737362_x_at) / RFU TMEM51 (11727254_a_at) / Fold change /veh TMEM51 (11727254_a_at) / RFU PIWIL2 (11732686_x_at) / Fold change /veh PIWIL2 (11732686_x_at) / RFU ORM1 (11744905_x_at) / Fold change /veh ORM1 (11744905_x_at) / RFU CCDC152 (11743942_at) / Fold change /veh CCDC152 (11743942_at) / RFU ECM1 (11717891_a_at) / Fold change /veh ECM1 (11717891_a_at) / RFU IL23R (11748794_a_at) / Fold change /veh IL23R (11748794_a_at) / RFU TNFAIP8L3 (11732012_x_at) / Fold change /veh TNFAIP8L3 (11732012_x_at) / RFU MBOAT4 (11741988_at) / Fold change /veh MBOAT4 (11741988_at) / RFU 11764193_at / Fold change /veh 11764193_at / RFU TMEM53 (11763286_at) / Fold change /veh TMEM53 (11763286_at) / RFU MAGEB2 (11727129_at) / Fold change /veh MAGEB2 (11727129_at) / RFU TMEM200A (11744735_a_at) / Fold change /veh TMEM200A (11744735_a_at) / RFU CCDC152 (11751479_a_at) / Fold change /veh CCDC152 (11751479_a_at) / RFU FAM211A (11726209_a_at) / Fold change /veh FAM211A (11726209_a_at) / RFU RGS16 (11746705_a_at) / Fold change /veh RGS16 (11746705_a_at) / RFU VCAN (11755009_s_at) / Fold change /veh VCAN (11755009_s_at) / RFU RHOB (11743442_s_at) / Fold change /veh RHOB (11743442_s_at) / RFU RGS16 (11720943_a_at) / Fold change /veh RGS16 (11720943_a_at) / RFU RGS16 (11720944_at) / Fold change /veh RGS16 (11720944_at) / RFU, VPS4B / Fold change vs veh, VPS4B / RFU, CREB1 / Fold change vs veh, CREB1 / RFU, DNAJC13 / Fold change vs veh, DNAJC13 / RFU, GNAQ / Fold change vs veh, GNAQ / RFU, CDK5R1 / Fold change vs veh, CDK5R1 / RFU, ZRANB3 / Fold change vs veh, ZRANB3 / RFU, CUL4A / Fold change vs veh, CUL4A / RFU, CCNY / Fold change vs veh, CCNY / RFU, UFL1 / Fold change vs veh, UFL1 / RFU, COG3 / Fold change vs veh, COG3 / RFU, DIAPH2 / Fold change vs veh, DIAPH2 / RFU, SKA2 / Fold change vs veh, SKA2 / RFU, AFF3 / Fold change vs veh, AFF3 / RFU, LMF1 / Fold change vs veh, LMF1 / RFU, IPO11 / Fold change vs veh, IPO11 / RFU, DFFB / Fold change vs veh, DFFB / RFU, FOXP1 / Fold change vs veh, FOXP1 / RFU, CARD8 / Fold change vs veh, CARD8 / RFU, STRN3 / Fold change vs veh, STRN3 / RFU, ADK / Fold change vs veh, ADK / RFU, RASSF2 / Fold change vs veh, RASSF2 / RFU, WIPF1 / Fold change vs veh, WIPF1 / RFU, LARP1B / Fold change vs veh, LARP1B / RFU, RASA1 / Fold change vs veh, RASA1 / RFU, RB1 / Fold change vs veh, RB1 / RFU, PPFIA1 / Fold change vs veh, PPFIA1 / RFU, MAT2A / Fold change vs veh, MAT2A / RFU, CCT5 / Fold change vs veh, CCT5 / RFU, WDR92 / Fold change vs veh, WDR92 / RFU, CUX1 / Fold change vs veh, CUX1 / RFU, TTC7A / Fold change vs veh, TTC7A / RFU, TMEM135 / Fold change vs veh, TMEM135 / RFU, DEPTOR / Fold change vs veh, DEPTOR / RFU, CPM / Fold change vs veh, CPM / RFU, DNAJB6 / Fold change vs veh, DNAJB6 / RFU, CACNA2D3 / Fold change vs veh, CACNA2D3 / RFU, DTX4 / Fold change vs veh, DTX4 / RFU, TFCP2 / Fold change vs veh, TFCP2 / RFU, GMCL1 /// GMCL1P1 / Fold change vs veh, GMCL1 /// GMCL1P1 / RFU, AEBP2 / Fold change vs veh, AEBP2 / RFU, SNHG1 /// SNORD22 /// SNORD25 /// SNORD26 /// SNORD27 /// SNORD28 /// SNORD29 /// SNORD31 / Fold change vs veh, SNHG1 /// SNORD22 /// SNORD25 /// SNORD26 /// SNORD27 /// SNORD28 /// SNORD29 /// SNORD31 / Fold change (Aza/veh), C12orf56 (ProbeSet 11735607_a_at) / Fold change (ACY-1035/veh), C12orf56 (ProbeSet 11735607_a_at) / Fold change (Aza/veh), FGFR1OP (ProbeSet 11751329_s_at) / Fold change (ACY-1035/veh), FGFR1OP (ProbeSet 11751329_s_at) / Fold change (Aza/veh), VPS36 (ProbeSet 11739960_a_at) / Fold change (ACY-1035/veh), VPS36 (ProbeSet 11739960_a_at) / RFU SYPL1 (11715823_x_at) / Fold change /veh SYPL1 (11715823_x_at) / RFU IGFBP7 (11715501_s_at) / Fold change /veh IGFBP7 (11715501_s_at) / RFU REEP3 (11722064_at) / Fold change /veh REEP3 (11722064_at) / RFU IGLL1 (11728026_x_at) / Fold change /veh IGLL1 (11728026_x_at): dose or concentration left out as unconfirmed", "details": "MV-4-11 cells, 48 hours"}
{"smiles": "Nc1ncn([C@@H]2O[C@H](CO)[C@@H](O)[C@H]2O)c(=O)n1", "note": "[azacitidine]", "values": [{"measurement": "RFU 11762660_at", "result": 14.91, "unit": "RFU"}]}
